{"source": "ChEMBL document CHEMBL5226390", "about": "“Synthesis and Structure-Activity Analysis of Icaritin Derivatives as Potential Tumor Growth Inhibitors of Hepatocellular Carcinoma Cells” (J Nat Prod, 2023)", "key": {"[1]": {"system": "HepG2", "assay": "Induction of apoptosis in human HepG2 cells assessed as viable cells at 8 uM incubated for 48 hrs by AnnexinV-FITC/PI staining based flow cytometry (reference value: 91.1%)", "type": "functional", "details": "read-out: Activity"}, "[2]": {"system": "HepG2", "assay": "Induction of cell cycle arrest in human HepG2 cells assessed as accumulation of cells at G0/G1 phase at 8 uM incubated for 48 hrs by PI staining based flow cytometry (reference value: 64.11%)", "type": "functional"}, "[3]": {"system": "SMMC-7721", "assay": "Potency index, ratio of Sorafenib IC50 to test compound IC50 for antiproliferative activity against human SMMC-7721 cells", "type": "functional"}, "[4]": {"system": "SMMC-7721", "assay": "Induction of apoptosis in human SMMC-7721 cells assessed as chromatin condensation and fragmentation at 2 to 8 uM incubated for 48 hrs by Hoechst 33258 staining based fluorescence microscopic analysis", "type": "functional, cell-based", "details": "dose 2-8 µM"}, "[5]": {"system": "SMMC-7721", "assay": "Induction of cell cycle arrest in human SMMC-7721 cells assessed as accumulation of cells at G0/G1 phase at 2 uM incubated for 48 hrs by PI staining based flow cytometry (reference value: 59.57%)", "type": "functional"}, "[6]": {"system": "SMMC-7721", "assay": "Induction of cell cycle arrest in human SMMC-7721 cells assessed as accumulation of cells at G2/M phase at 8 uM incubated for 48 hrs by PI staining based flow cytometry (reference value: 15.49%)", "type": "functional"}, "[7]": {"assay": "Solubility of the compound in water incubated for 24 hrs under stirring conditions by HPLC analysis", "type": "physicochemical"}, "[8]": {"system": "HepG2", "assay": "Induction of apoptosis in human HepG2 cells assessed as viable cells at 4 uM incubated for 48 hrs by AnnexinV-FITC/PI staining based flow cytometry (reference value: 91.1%)", "type": "functional", "details": "read-out: Activity"}, "[9]": {"system": "SMMC-7721", "assay": "Induction of apoptosis in human SMMC-7721 cells assessed as viable cells at 4 uM incubated for 48 hrs by AnnexinV-FITC/PI staining based flow cytometry (reference value: 85.1%)", "type": "functional", "details": "read-out: Activity"}, "[10]": {"system": "SMMC-7721", "assay": "Induction of apoptosis in human SMMC-7721 cells assessed as necrotic cells at 4 uM incubated for 48 hrs by AnnexinV-FITC/PI staining based flow cytometry (reference value: 12.3%)", "type": "functional"}, "[11]": {"system": "SMMC-7721", "assay": "Induction of apoptosis in human SMMC-7721 cells assessed as necrotic cells at 8 uM incubated for 48 hrs by AnnexinV-FITC/PI staining based flow cytometry (reference value: 12.3%)", "type": "functional"}, "[12]": {"system": "HepG2", "assay": "Induction of apoptosis in human HepG2 cells assessed as late apoptotic cells at 4 uM incubated for 48 hrs by AnnexinV-FITC/PI staining based flow cytometry (reference value: 3.23%)", "type": "functional"}, "[13]": {"system": "HepG2", "assay": "Induction of cell cycle arrest in human HepG2 cells assessed as accumulation of cells at G2/M phase at 2 uM incubated for 48 hrs by PI staining based flow cytometry (reference value: 17.89%)", "type": "functional"}, "[14]": {"system": "SMMC-7721", "assay": "Induction of cell cycle arrest in human SMMC-7721 cells assessed as accumulation of cells at G2/M phase at 4 uM incubated for 48 hrs by PI staining based flow cytometry (reference value: 15.49%)", "type": "functional"}, "[15]": {"system": "HepG2", "assay": "Induction of cell cycle arrest in human HepG2 cells assessed as accumulation of cells at G0/G1 phase at 2 uM incubated for 48 hrs by PI staining based flow cytometry (reference value: 64.11%)", "type": "functional"}, "[16]": {"system": "HepG2", "assay": "Induction of apoptosis in human HepG2 cells assessed as viable cells at 2 uM incubated for 48 hrs by AnnexinV-FITC/PI staining based flow cytometry (reference value: 91.1%)", "type": "functional", "details": "read-out: Activity"}, "[17]": {"system": "HepG2", "assay": "Induction of cell cycle arrest in human HepG2 cells assessed as accumulation of cells at G2/M phase at 4 uM incubated for 48 hrs by PI staining based flow cytometry (reference value: 17.89%)", "type": "functional"}, "[18]": {"system": "HepG2", "assay": "Induction of cell cycle arrest in human HepG2 cells assessed as downregulation of p34 protein expression at 2 to 8 uM incubated for 48 hrs by western blot analysis", "type": "functional, cell-based", "details": "dose 2-8 µM"}, "[19]": {"system": "HepG2", "assay": "Induction of cell cycle arrest in human HepG2 cells assessed as downregulation of CDK4 protein expression at 2 to 8 uM incubated for 48 hrs by western blot analysis", "type": "functional, cell-based", "details": "dose 2-8 µM"}, "[20]": {"system": "HepG2", "assay": "Induction of apoptosis in human HepG2 cells assessed as chromatin condensation and fragmentation at 2 to 8 uM incubated for 48 hrs by Hoechst 33258 staining based fluorescence microscopic analysis", "type": "functional, cell-based", "details": "dose 2-8 µM"}, "[21]": {"system": "HepG2", "assay": "Induction of apoptosis in human HepG2 cells assessed as necrotic cells at 2 uM incubated for 48 hrs by AnnexinV-FITC/PI staining based flow cytometry (reference value: 2.22%)", "type": "functional"}, "[22]": {"system": "HepG2", "assay": "Induction of apoptosis in human HepG2 cells assessed as late apoptotic cells at 8 uM incubated for 48 hrs by AnnexinV-FITC/PI staining based flow cytometry (reference value: 3.23%)", "type": "functional"}, "[23]": {"system": "SMMC-7721", "assay": "Induction of apoptosis in human SMMC-7721 cells assessed as late apoptotic cells at 4 uM incubated for 48 hrs by AnnexinV-FITC/PI staining based flow cytometry (reference value: 1.51%)", "type": "functional"}, "[24]": {"system": "HepG2", "assay": "Induction of cell cycle arrest in human HepG2 cells assessed as downregulation of Cdc2 protein expression at 2 to 8 uM incubated for 48 hrs by western blot analysis", "type": "functional, cell-based", "details": "dose 2-8 µM"}, "[25]": {"system": "SMMC-7721", "assay": "Induction of cell cycle arrest in human SMMC-7721 cells assessed as accumulation of cells at G0/G1 phase at 8 uM incubated for 48 hrs by PI staining based flow cytometry (reference value: 59.57%)", "type": "functional"}, "[26]": {"system": "SMMC-7721", "assay": "Induction of cell cycle arrest in human SMMC-7721 cells assessed as accumulation of cells at S phase at 8 uM incubated for 48 hrs by PI staining based flow cytometry (reference value: 24.94%)", "type": "functional"}, "[27]": {"system": "SMMC-7721", "assay": "Induction of apoptosis in human SMMC-7721 cells assessed as increase in number of detached cells with fewer cells at 2 to 8 uM incubated for 48 hrs by phase contrast microscopy", "type": "functional, cell-based", "details": "dose 2-8 µM"}, "[28]": {"system": "HepG2", "assay": "Induction of apoptosis in human HepG2 cells assessed as early apoptotic cells at 8 uM incubated for 48 hrs by AnnexinV-FITC/PI staining based flow cytometry (reference value: 3.41%)", "type": "functional"}, "[29]": {"system": "SMMC-7721", "assay": "Induction of cell cycle arrest in human SMMC-7721 cells assessed as upregulation of p21 protein expression at 2 to 8 uM incubated for 48 hrs by western blot analysis", "type": "functional, cell-based", "details": "dose 2-8 µM"}, "[30]": {"system": "HepG2", "assay": "Induction of apoptosis in human HepG2 cells assessed as necrotic cells at 8 uM incubated for 48 hrs by AnnexinV-FITC/PI staining based flow cytometry (reference value: 2.22%)", "type": "functional"}, "[31]": {"system": "SMMC-7721", "assay": "Induction of cell cycle arrest in human SMMC-7721 cells assessed as accumulation of cells at S phase at 2 uM incubated for 48 hrs by PI staining based flow cytometry (reference value: 24.94%)", "type": "functional"}, "[32]": {"system": "HepG2", "assay": "Induction of apoptosis in human HepG2 cells assessed as increase in number of detached cells with fewer cells at 2 to 8 uM incubated for 48 hrs by phase contrast microscopy", "type": "functional, cell-based", "details": "dose 2-8 µM"}, "[33]": {"system": "HepG2", "assay": "Potency index, ratio of Sorafenib IC50 to test compound IC50 for antiproliferative activity against human HepG2 cells", "type": "functional"}, "[34]": {"system": "SMMC-7721", "assay": "Induction of cell cycle arrest in human SMMC-7721 cells assessed as accumulation of cells at S phase at 4 uM incubated for 48 hrs by PI staining based flow cytometry (reference value: 24.94%)", "type": "functional"}}, "note": "Calls of active or inactive are those of the source. The rule behind the calls is not given here."}
{"smiles": "COc1ccc(-c2oc3c(CC=C(C)C)c(OCCN4CCCC4)cc(O)c3c(=O)c2O[C@H]2O[C@H](C)[C@@H](O)[C@H](O)[C@@H]2O)cc1", "values": [{"measurement": "viability at 8 µM", "setting": "[1]", "result": 62.2, "unit": "%"}, {"measurement": "Activity", "setting": "[2]", "result": 91.15, "unit": "%"}, {"measurement": "Ratio IC50", "setting": "[3]", "result": 2}, {"measurement": "Activity", "setting": "[4]", "result": "Active"}, {"measurement": "Activity", "setting": "[5]", "result": 63.01, "unit": "%"}, {"measurement": "Activity", "setting": "[6]", "result": 8.88, "unit": "%"}, {"measurement": "solubility at 24 h", "setting": "[7]", "result": 11.8, "unit": "mg/mL"}, {"measurement": "viability at 4 µM", "setting": "[8]", "result": 86.2, "unit": "%"}, {"measurement": "viability at 4 µM", "setting": "[9]", "result": 89.6, "unit": "%"}, {"measurement": "Activity", "setting": "[10]", "result": 0.956, "unit": "%"}, {"measurement": "Activity", "setting": "[11]", "result": 22.1, "unit": "%"}, {"measurement": "Activity", "setting": "[12]", "result": 5.47, "unit": "%"}, {"measurement": "Activity", "setting": "[13]", "result": 17.51, "unit": "%"}, {"measurement": "Activity", "setting": "[14]", "result": 14.83, "unit": "%"}, {"measurement": "Activity", "setting": "[15]", "result": 68.79, "unit": "%"}, {"measurement": "viability at 2 µM", "setting": "[16]", "result": 83.3, "unit": "%"}, {"measurement": "Activity", "setting": "[17]", "result": 10.7, "unit": "%"}, {"measurement": "Activity", "setting": "[18]", "result": "Active"}, {"measurement": "Activity", "setting": "[19]", "result": "Active"}, {"measurement": "Activity", "setting": "[20]", "result": "Active"}, {"measurement": "Activity", "setting": "[21]", "result": 8.93, "unit": "%"}, {"measurement": "Activity", "setting": "[22]", "result": 17.7, "unit": "%"}, {"measurement": "Activity", "setting": "[23]", "result": 6.92, "unit": "%"}, {"measurement": "Activity", "setting": "[24]", "result": "Active"}, {"measurement": "Activity", "setting": "[25]", "result": 78.65, "unit": "%"}, {"measurement": "Activity", "setting": "[26]", "result": 12.47, "unit": "%"}, {"measurement": "Activity", "setting": "[27]", "result": "Active"}, {"measurement": "Activity", "setting": "[28]", "result": 3.42, "unit": "%"}, {"measurement": "Activity", "setting": "[29]", "result": "Active"}, {"measurement": "Activity", "setting": "[30]", "result": 16.7, "unit": "%"}, {"measurement": "Activity", "setting": "[31]", "result": 23.71, "unit": "%"}, {"measurement": "Activity", "setting": "[32]", "result": "Active"}, {"measurement": "Ratio IC50", "setting": "[33]", "result": 2}, {"measurement": "Activity", "setting": "[34]", "result": 19.6, "unit": "%"}]}
